Assay results: the supplement of paper PMC13380429

What was measured:
Details in all cases: 72 h
HepG2 [1] = experiment: relative viability EC50 (midpoint between 100% and the lowest measured viability); higher = less toxic
Caco-2 [2] = experiment: as above
U2OS [3] = experiment: as above
Vero E6 [4] = experiment: as above
Calu-3 [5] = experiment: as above
HepG2 [6] = experiment: drug sensitivity score (DSS) for viability; higher = more toxic; extreme values may be limits of the assay
Caco-2 [7] = experiment: as above
U2OS [8] = experiment: as above
Vero E6 [9] = experiment: as above
Calu-3 [10] = experiment: as above
HepG2 [11] = experiment: cell viability relative to DMSO; higher = less toxic
Caco-2 [12] = experiment: as above
U2OS [13] = experiment: as above
Vero E6 [14] = experiment: as above
Calu-3 [15] = experiment: as above

Row | Compound | relative viability EC50 (HepG2 [1]) | relative viability EC50 (Caco-2 [2]) | relative viability EC50 (U2OS [3]) | relative viability EC50 (Vero E6 [4]) | relative viability EC50 (Calu-3 [5]) | drug sensitivity score (HepG2 [6]) | drug sensitivity score (Caco-2 [7]) | drug sensitivity score (U2OS [8]) | drug sensitivity score (Vero E6 [9]) | drug sensitivity score (Calu-3 [10]) | cell viability (HepG2 [11]; 1 nM) | cell viability (HepG2 [11]; 10 nM) | cell viability (HepG2 [11]; 100 nM) | cell viability (HepG2 [11]; 1000 nM) | cell viability (HepG2 [11]; 10000 nM) | cell viability (Caco-2 [12]; 1 nM) | cell viability (Caco-2 [12]; 10 nM) | cell viability (Caco-2 [12]; 100 nM) | cell viability (Caco-2 [12]; 1000 nM) | cell viability (Caco-2 [12]; 10000 nM) | cell viability (U2OS [13]; 1 nM) | cell viability (U2OS [13]; 10 nM) | cell viability (U2OS [13]; 100 nM) | cell viability (U2OS [13]; 1000 nM) | cell viability (U2OS [13]; 10000 nM) | cell viability (Vero E6 [14]; 1 nM) | cell viability (Vero E6 [14]; 10 nM) | cell viability (Vero E6 [14]; 100 nM) | cell viability (Vero E6 [14]; 1000 nM) | cell viability (Vero E6 [14]; 10000 nM) | cell viability (Calu-3 [15]; 1 nM) | cell viability (Calu-3 [15]; 10 nM) | cell viability (Calu-3 [15]; 100 nM) | cell viability (Calu-3 [15]; 1000 nM) | cell viability (Calu-3 [15]; 10000 nM)
1 | CC(C)NCC(O)c1ccc2ccccc2c1 (stereo not given) [pronethalol] | > 10 µM | > 10 µM | > 10 µM | > 10 µM | > 10 µM | 0 | 0 | 0 | 0 | 0 | 105% | 91.6% | 104% | 87% | 106% | 89.8% | 97.7% | 87.4% | 90.8% | 93.1% | 98.5% | 105% | 97.7% | 102% | 95.5% | 112% | 106% | 100% | 94.3% | 98.7% | 91.1% | 99% | 101% | 93.8% | 93.8%
2 | CC(C)(C)C(=O)CN1C(=O)[C@H](NC(=O)Nc2cccc(C(=O)O)c2)CN(C2CCCCC2)c2ccccc21 [nastorazepide] | > 10 µM | > 10 µM | > 10 µM | > 10 µM | > 10 µM | 0 | 0 | 0 | 0 | 0 | 99.9% | 106% | 96.7% | 108% | 95.9% | 96.6% | 95.4% | 93.1% | 92.7% | 95.8% | 100% | 96.7% | 103% | 96.5% | 100% | 104% | 105% | 99.2% | 105% | 98.8% | 96.7% | 104% | 113% | 98.8% | 118%
3 | C(=C\c1ccccc1)/CN1CCN(CCOC(c2ccccc2)c2ccccc2)CC1 | > 10 µM | > 10 µM | > 10 µM | > 10 µM | > 10 µM | 0 | 0.6 | 0 | 0 | 0 | 92.7% | 97.3% | 91.3% | 90.4% | 95.4% | 102% | 87.5% | 101% | 99.1% | 80.5% | 99.1% | 95.5% | 95.8% | 103% | 100% | 98% | 97% | 95.8% | 91.7% | 91.6% | 113% | 99.3% | 98.5% | 92% | 98.8%
4 | CC1(C)OC(=O)NC1=O [dimethadione] | > 10 µM | > 10 µM | > 10 µM | > 10 µM | > 10 µM | 0 | 0 | 0 | 0 | 0 | 106% | 102% | 96.9% | 95.9% | 95.1% | 99.9% | 98.9% | 105% | 97.7% | 98.3% | 101% | 103% | 95% | 98.6% | 96.2% | 112% | 108% | 108% | 97.7% | 102% | 92.4% | 107% | 100% | 105% | 109%
